The term logP denotes the decadic logarithm of the partition coefficient of the neutral form, usually between octanol and water.

SMILES strings stand for the structures.

The first series can be described thus: log P determination by HPLC on reverse-phase column (EEC Directive 79/831 Annex V.A8).
Settings: not given
In kind it is physicochemical. The essentials: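 Log P was derived from retention times by linear interpolation between successive unbranched alkan-2-one standards (C3–C16). The standards and samples ran on a C18 reverse-phase column at 43 °C with a 10→95% acetonitrile gradient in 0.1% formic acid (pH 2.7). The method follows EEC Directive 79/831 Annex V.A8.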
The compound `CNC(=O)c1cc(Cl)cc(Cl)c1NC(=O)c1cc(Cn2nc(C(F)(F)F)cc2C(F)(F)F)nn1-c1ncccc1Cl` [I-1-304] gave a logP of 3.01.
Consider `Cc1cc(C#N)cc(C(=O)NC2C3CCCCC32)c1NC(=O)c1cc(Cn2cc(Cl)c(C(F)(F)C(F)(F)F)n2)nn1-c1ncccc1Cl` (stereo not drawn) [I-1-197], for which the logP came out at 4.50.
The same measure, in the same setting: then `Cc1cc(Cl)cc(C(=O)NC2CC2)c1NC(=O)c1cc(Cn2cnc(C(F)(F)C(F)(F)F)n2)nn1-c1ncccc1Cl` [I-1-345], with 2.42; and `CNC(=O)c1cc(F)cc(C)c1NC(=O)c1cc(Cn2cc(Cl)c(C(F)(F)C(F)(F)F)n2)nn1-c1ncccc1Cl` [I-1-223], with 3.47.
`N#CCNC(=O)c1cc(Cl)cc(Cl)c1NC(=O)c1cc(Cn2ccc(C(F)(F)F)n2)nn1-c1ncccc1Cl` [I-1-313] returned a lipophilicity (logP) of 2.43.
The same measure, in the same setting: then `NC(=O)c1cc(Cl)cc(Cl)c1NC(=O)c1cc(Cn2ccc(C(F)(F)F)n2)nn1-c1ncccc1Cl` [I-1-311], with 2.21; and `CSC[C@H](C)NC(=O)c1cc(Cl)cc(C)c1NC(=O)c1cc(Cn2cnc(C(C)(C)C)n2)nn1-c1ncccc1Cl` [I-1-162], with 3.10; and `Cc1cc(C#N)cc(C(=O)NC2CC2)c1NC(=O)c1cc(Cn2cnc(C(F)(F)C(F)(F)F)n2)nn1-c1ncccc1Cl` [I-1-338], with 2.45.
Same read-out and setting: then `Cc1cc(C#N)cc(C(N)=O)c1NC(=O)c1cc(Cn2cnc(C(F)(F)C(F)(F)F)n2)nn1-c1ncccc1Cl` [I-1-350], with 1.75; and `CC(C)NC(=O)c1cc(Cl)cc(Cl)c1NC(=O)c1cc(Cn2nc(C(F)(F)F)cc2C(F)(F)F)nn1-c1ncccc1Cl` [I-1-305], with 3.40; and `CSc1ncn(Cc2cc(C(=O)Nc3c(C)cc(Cl)cc3C(=O)NC(C)C)n(-c3ncccc3Cl)n2)n1` [I-1-262], with 2.31.
The same measure, in the same setting: in the case of `CC(C)NC(=O)c1cc(Cl)cc(Cl)c1NC(=O)c1cc(Cn2cc(Cl)c(C(F)(F)C(F)(F)F)n2)nn1-c1ncccc1Cl` [I-1-309] it was 3.53; in that of `CCNC(=O)c1cc(I)cc(C)c1NC(=O)c1cc(Cn2cc(C(F)(F)C(F)(F)F)c(C(F)(F)C(F)(F)F)n2)nn1-c1ncccc1Cl` [I-1-274], 4.74.
In the case of `Cc1cc(I)cc(C(=O)NC(C2CC2)C2CC2)c1NC(=O)c1cc(Cn2cc(Cl)c(C(F)(F)C(F)(F)F)n2)nn1-c1ncccc1Cl` [I-1-288], the logP amounted to 4.79.
Take `Cc1cc(F)cc(C(=O)NC2C3CCCCC32)c1NC(=O)c1cc(Cn2cc(Cl)c(C(F)(F)C(F)(F)F)n2)nn1-c1ncccc1Cl` (stereo not drawn) [I-1-199]: the logP is 4.55.
The compound `Cc1cc(C#N)cc(C(=O)NCC#N)c1NC(=O)c1cc(Cn2ccc(C(F)(F)F)n2)nn1-c1ncccc1Cl` [I-1-185] displayed a logP of 2.62.
Same read-out and setting: in the case of `CCNC(=O)c1cc(I)cc(C)c1NC(=O)c1cc(Cn2ccc(C(F)(F)F)n2)nn1-c1ncccc1Cl` [I-1-250] it was 3.28; in that of `CCNC(=O)c1cc(I)cc(C)c1NC(=O)c1cc(Cn2nc(C(F)(F)F)cc2C(F)(F)F)nn1-c1ncccc1Cl` [I-1-228], 4.06.
Still for that read-out and setting: in the case of `Cc1cc(I)cc(C(=O)NC(C)(C)C)c1NC(=O)c1cc(Cn2cc(Cl)c(C(F)(F)C(F)(F)F)n2)nn1-c1ncccc1Cl` [I-1-289] it was 4.63; in that of `CSCC(C)NC(=O)c1cc(Cl)cc(C)c1NC(=O)c1cc(Cn2cc(Cl)c(C(F)(F)C(F)(F)F)n2)nn1-c1ncccc1Cl` (stereo not drawn) [I-1-206], 4.41; in that of `Cc1cc(I)cc(C(=O)NC2CC2)c1NC(=O)c1cc(Cn2nc(C(F)F)c([N+](=O)[O-])c2C(F)F)nn1-c1ncccc1Cl` [I-1-268], 3.44.
The same measure, in the same setting: then `Cc1cc(I)cc(C(=O)NC(C)C)c1NC(=O)c1cc(Cn2nc(C(F)F)c([N+](=O)[O-])c2C(F)F)nn1-c1ncccc1Cl` [I-1-267], with 3.67; and `N#CCNC(=O)c1cc(Cl)cc(Cl)c1NC(=O)c1cc(Cn2cc(C(F)(F)C(F)(F)F)c(C(F)(F)C(F)(F)F)n2)nn1-c1ncccc1Cl` [I-1-299], with 3.53.
The compound `Cc1cc(C#N)cc(C(N)=O)c1NC(=O)c1cc(Cn2cnc(C(F)(F)C(F)(F)F)n2)nn1-c1ncccc1Cl` [I-1-339] had a logP of 2.11.
Same read-out and setting: in the case of `Cc1cc(I)cc(C(=O)NC2CC2)c1NC(=O)c1cc(Cn2cc(C(F)(F)C(F)(F)F)c(C(F)(F)C(F)(F)F)n2)nn1-c1ncccc1Cl` [I-1-275] it was 4.71.
Still for that read-out and setting: then `Cc1cc(C#N)cc(C(=O)NCc2ccco2)c1NC(=O)c1cc(Cn2cc(Cl)c(C(F)(F)C(F)(F)F)n2)nn1-c1ncccc1Cl` [I-1-208], with 3.90; and `CNC(=O)c1cc(Cl)cc(Cl)c1NC(=O)c1cc(Cc2ccoc2)nn1-c1ncccc1Cl` [I-1-306], with 2.18.
Compound `C[C@@H](CS(C)(=O)=O)NC(=O)c1cc(Cl)cc(Cl)c1NC(=O)c1cc(Cn2cc(C(F)(F)C(F)(F)F)c(C(F)(F)C(F)(F)F)n2)nn1-c1ncccc1Cl` [I-1-328] had a logP of 3.63.
Same read-out and setting: then `Cc1cc(C#N)cc(C(=O)NC(C)C)c1NC(=O)c1cc(Cn2nc(C(F)(F)F)cc2C(F)(F)F)nn1-c1ncccc1Cl` [I-1-187], with 3.80.
Same read-out and setting: in the case of `Cc1cc(C#N)cc(C(=O)NC(C)C)c1NC(=O)c1cc(Cn2cc(C(F)(F)C(F)(F)F)c(C(F)(F)C(F)(F)F)n2)nn1-c1ncccc1Cl` [I-1-169] it was 4.55.
Still for that read-out and setting: in the case of `CNC(=O)c1cc(Cl)cc(Cl)c1NC(=O)c1cc(Cn2nc(C(F)F)c([N+](=O)[O-])c2C(F)F)nn1-c1ncccc1Cl` [I-1-266] it was 2.99.

Still in this series, the particulars now being: HPLC on reverse-phase column.
On to `CNC(=O)c1cc(Cl)cc(C)c1NC(=O)c1cc(Cn2cc(I)cn2)nn1-c1ncccc1Cl` [I-1-45], for which the logP is given as 2.67.
Same read-out and setting: then `Cc1cc(Cl)cc(C(=O)N[C@@H](C)CS(C)(=O)=O)c1NC(=O)c1cc(Cn2nc(C(F)(F)F)nc2C(F)(F)F)nn1-c1ncccc1Cl` [I-1-129], with 3.27; and `CNC(=O)c1cc(Br)cc(C)c1NC(=O)c1cc(Cn2cc(Cl)c(C(F)(F)C(F)(F)F)n2)nn1-c1ncccc1Cl` [I-1-70], with 3.94; and `Cc1cc(Cl)cc(C(=O)NC(C)C)c1NC(=O)c1cc(Cn2cc(C(F)(F)F)cn2)nn1-c1ncccc1Cl` [I-1-43], with 3.20.
The same measure, in the same setting: in the case of `CNC(=O)OC[C@H](C)NC(=O)c1cc(Cl)cc(C)c1NC(=O)c1cc(Cn2nc(C(F)(F)F)nc2C(F)(F)F)nn1-c1ncccc1Cl` [I-1-78] it was 3.36; in that of `CNC(=O)c1cc(Cl)cc(C)c1NC(=O)c1cc(Cn2ccc(Br)n2)nn1-c1ncccc1Cl` [I-1-125], 2.56.
On the same count and under the same terms, in the case of `Cc1cc(Cl)cc(C(=O)NCC#N)c1NC(=O)c1cc(Cn2nc(C(F)(F)F)nc2C(F)(F)F)nn1-c1ncccc1Cl` [I-1-55] it was 3.40; in that of `CNC(=O)c1cc(Cl)cc(C)c1NC(=O)c1cc(Cn2nc(C(F)(F)F)nc2C(F)(F)F)nn1-c1c(Cl)cccc1Cl` [I-1-41], 4.13; in that of `CNC(=O)c1cc(Cl)cc(C)c1NC(=O)c1cc(Cn2nnc(-c3ccc(Br)cc3)n2)nn1-c1ncccc1Cl` [I-1-150], 3.70.
Regarding `CNC(=O)c1cc(Cl)cc(C)c1NC(=O)c1cc(Cn2nnn(-c3ccc(C(F)(F)F)c(Cl)c3)c2=O)nn1-c1ncccc1Cl` [I-1-108], the logP was determined as 3.90.
The same measure, in the same setting: in the case of `CNC(=O)c1cc(Cl)cc(C)c1NC(=O)c1cc(Cn2nnn(-c3cc(C(F)(F)F)cc(C(F)(F)F)c3)c2=O)nn1-c1ncccc1Cl` [I-1-90] it was 4.08; in that of `Cc1cc(Cl)cc(C(=O)N[C@@H](C)C[S+](C)[O-])c1NC(=O)c1cc(Cn2cc(Br)c(C(F)(F)F)n2)nn1-c1ncccc1Cl` (stereo partly drawn) [I-1-138], 2.91.
On the same count and under the same terms, in the case of `Cc1cc(Br)cc(C(=O)NC(C)(C)C[S+](C)[O-])c1NC(=O)c1cc(Cn2nc(C(F)(F)F)nc2C(F)(F)F)nn1-c1ncccc1Cl` (stereo not drawn) [I-1-144] it was 3.38; in that of `Cc1cc(Br)cc(C(=O)NC2CC2)c1NC(=O)c1cc(Cn2ccc(C(F)(F)F)n2)nn1-c1ncccc1Cl` [I-1-82], 3.18.
For the compound `CNC(=O)c1cc(Br)cc(C)c1NC(=O)c1cc(Cn2nc(C(F)(F)F)cc2C(F)(F)F)nn1-c1ncccc1Cl` [I-1-58], the log partition coefficient (logP) amounted to 3.76.
On the same count and under the same terms, in the case of `Cc1cc(Br)cc(C(=O)NCC#N)c1NC(=O)c1cc(Cn2ccc(C(F)(F)F)n2)nn1-c1ncccc1Cl` [I-1-85] it was 2.98; in that of `Cc1cc(Br)cc(C(=O)NC2CC2)c1NC(=O)c1cc(Cn2cc(Br)c(C(F)(F)F)n2)nn1-c1ncccc1Cl` [I-1-93], 3.69.
Still for that read-out and setting: then `CNC(=O)c1cc(Cl)cc(C)c1NC(=O)c1cc(Cn2nnn(-c3ccc(C(F)(F)F)cc3)c2=O)nn1-c1ncccc1Cl` [I-1-88], with 3.61.
Take `CNC(=O)c1cc(Cl)cc(C)c1NC(=O)c1cc(Cn2nnn(CC(F)(F)F)c2=O)nn1-c1ncccc1Cl` [I-1-122]: the logP is listed as 2.51.
Same read-out and setting: then `Cc1cc(Br)cc(C(=O)NC(C)C)c1NC(=O)c1cc(Cn2cc(Cl)c(C(F)(F)C(F)(F)F)n2)nn1-c1ncccc1Cl` [I-1-71], with 4.40; and `Cc1cc(Cl)cc(C(=O)NCC#N)c1NC(=O)c1cc(Cn2nc(C(F)(F)F)nc2C(F)(F)F)nn1-c1ncccc1Cl` [I-1-49], with 3.97.
On the same count and under the same terms, in the case of `Cc1cc(Cl)cc(C(N)=O)c1NC(=O)c1cc(Cn2nnc(-c3ccc(C(F)(F)F)cc3)n2)nn1-c1ncccc1Cl` [I-1-106] it was 3.46.
Still for that read-out and setting: then `Cc1cc(Cl)cc(C(=O)NCC#N)c1NC(=O)c1cc(Cn2cc(C(F)(F)C(F)(F)F)c(C(F)(F)C(F)(F)F)n2)nn1-c1ncccc1Cl` [I-1-47], with 4.31.

Staying with this series, now noted: HPLC, reverse-phase column (C 18), 43° C., acidic range pH 2.7.
Turning to `CNC(=O)c1cc(Cl)cc(Cl)c1NC(=O)c1cc(Cn2nc(C(F)(F)F)cc2C(F)(F)F)nn1-c1ncc(C(F)(F)F)cc1Cl` [I-2-23], the lipophilicity (logP) was found to be 3.54.
Still for that read-out and setting: in the case of `Cc1cc(Cl)cc(C(=O)NC(C2CC2)C2CC2)c1NC(=O)c1cc(Cn2nc(C(F)(F)F)cc2C(F)(F)F)nn1-c1ncc(C(F)(F)F)cc1Cl` [I-2-14] it was 5.27; in that of `CNC(=O)c1cc(Cl)cc(Cl)c1NC(=O)c1cc(Cn2nc(C(F)(F)F)nc2C(F)(F)F)nn1C1CCOC1` (stereo not drawn) [I-2-6], 2.99.

(Values after patent US8101550B2, “Anthranilic acid diamide derivative with hetero-aromatic and hetero-cyclic substituents” (Bayer Cropscience AG, priority 2006, dated 2012).)
